Reference: the supplement of paper PMC11208160

assay: recombinant UMI read abundance after kanamycin selection (control-corrected) (log10(CPM+1)); higher = more efficient recombination; extreme values may be limits of the assay; sequences stand for … in AGTGCAGAGAAAATCGGCCAGTTTTCTCTGCCTGCAGTCCGCATGCCGTGGGACCCCTTGGGTTCTAACCTGTTGCCTAGATTTATGCAGCGGACTGCCTTTCTCCCAAAGTGATAAACCGG…AGGTTGGTTTCACT; site = the 11-nt donor
How it was run: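 In Escherichia coli, a pool of donor and donor-binding-loop pairs, each with a 12-nt UMI, was tested for the IS621 bridge recombinase. Plating was on IPTG (0.07 mM) plus kanamycin, or without selection, in two replicates. Recombinant UMIs were amplified by PCR across the donor–target junction and sequenced, and counts were reported as log10(CPM+1) after averaging and control-derived scaling.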
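Note: IS621 bridge recombinase in Escherichia coli cells against a fixed T5 target plasmid.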

Sequence	recombinant UMI read abundance (log10)
GAATACTCATGGACCGGTTTTCCCGGTAATCCGTATTTGAT (site GAATACTCTAT)	2.8
GAATATTCATGGACCGGTTTTCCCGGTAATCCGTATTTGTT (site GAAAATTCTAA)	0
GAATATTCATGGACCGGTTTTCCCGGTAATCCGTATTTGTT (site GAACATTCTAA)	0
GAATATTCATGGACCGGTTTTCCCGGTAATCCGTATTTGTT (site GAAGATTCTAA)	0
GAATATTCATGGACCGGTTTTCCCGGTAATCCGTATTTGTT (site GAATATTCTAA)	0.948
GAATCGCCATGGACCGGTTTTCCCGGTAATCCGTATTTGCA (site GAATAGCCTTG)	0.613
GAATCGCCATGGACCGGTTTTCCCGGTAATCCGTATTTGCA (site GAATCGCCTTG)	0.687
GAATCGCCATGGACCGGTTTTCCCGGTAATCCGTATTTGCA (site GAATGGCCTTG)	0.345
GAATCGCCATGGACCGGTTTTCCCGGTAATCCGTATTTGCA (site GAATTGCCTTG)	0
GAATGACCATGGACCGGTTTTCCCGGTAATCCGTATTTGCA (site GAATGACCTTG)	1.13
GAATGACCATGGACCGGTTTTCCCGGTAATCCGTATTTGCA (site GAATGCCCTTG)	0
GAATGACCATGGACCGGTTTTCCCGGTAATCCGTATTTGCA (site GAATGGCCTTG)	1.02
GAATGACCATGGACCGGTTTTCCCGGTAATCCGTATTTGCA (site GAATGTCCTTG)	0
GAATGCTCATGGACCGGTTTTCCCGGTAATCCGTATTTGAA (site AAATGCTCTTT)	0.536
GAATGCTCATGGACCGGTTTTCCCGGTAATCCGTATTTGAA (site CAATGCTCTTT)	1.08
GAATGCTCATGGACCGGTTTTCCCGGTAATCCGTATTTGAA (site GAATGCTCTTT)	2.05
GAATGCTCATGGACCGGTTTTCCCGGTAATCCGTATTTGAA (site TAATGCTCTTT)	0.684
GAATGGCCATGGACCGGTTTTCCCGGTAATCCGTATTTGCA (site AAATGGCCTTG)	0
GAATGGCCATGGACCGGTTTTCCCGGTAATCCGTATTTGCA (site CAATGGCCTTG)	0
GAATGGCCATGGACCGGTTTTCCCGGTAATCCGTATTTGCA (site GAAAGGCCTTG)	0
GAATGGCCATGGACCGGTTTTCCCGGTAATCCGTATTTGCA (site GAACGGCCTTG)	0
GAATGGCCATGGACCGGTTTTCCCGGTAATCCGTATTTGCA (site GAAGGGCCTTG)	0
GAATGGCCATGGACCGGTTTTCCCGGTAATCCGTATTTGCA (site GAATAGCCTTG)	0.926
GAATGGCCATGGACCGGTTTTCCCGGTAATCCGTATTTGCA (site GAATCGCCTTG)	0.248
GAATGGCCATGGACCGGTTTTCCCGGTAATCCGTATTTGCA (site GAATGACCTTG)	0

Sequence	recombinant UMI read abundance (log10)
GAATGGCCATGGACCGGTTTTCCCGGTAATCCGTATTTGCA (site GAATGCCCTTG)	0.0091
GAATGGCCATGGACCGGTTTTCCCGGTAATCCGTATTTGCA (site GAATGGACTTG)	0.018
GAATGGCCATGGACCGGTTTTCCCGGTAATCCGTATTTGCA (site GAATGGCCTAG)	0
GAATGGCCATGGACCGGTTTTCCCGGTAATCCGTATTTGCA (site GAATGGCCTCG)	0.0219
GAATGGCCATGGACCGGTTTTCCCGGTAATCCGTATTTGCA (site GAATGGCCTGG)	0
GAATGGCCATGGACCGGTTTTCCCGGTAATCCGTATTTGCA (site GAATGGCCTTA)	0.0192
GAATGGCCATGGACCGGTTTTCCCGGTAATCCGTATTTGCA (site GAATGGCCTTC)	0.0145
GAATGGCCATGGACCGGTTTTCCCGGTAATCCGTATTTGCA (site GAATGGCCTTG)	0
GAATGGCCATGGACCGGTTTTCCCGGTAATCCGTATTTGCA (site GAATGGCCTTT)	0.0193
GAATGGCCATGGACCGGTTTTCCCGGTAATCCGTATTTGCA (site GAATGGGCTTG)	0.00704
GAATGGCCATGGACCGGTTTTCCCGGTAATCCGTATTTGCA (site GAATGGTCTTG)	0.0295
GAATGGCCATGGACCGGTTTTCCCGGTAATCCGTATTTGCA (site GAATGTCCTTG)	0
GAATGGCCATGGACCGGTTTTCCCGGTAATCCGTATTTGCA (site GAATTGCCTTG)	0
GAATGGCCATGGACCGGTTTTCCCGGTAATCCGTATTTGCA (site GACTGGCCTTG)	0.0119
GAATGGCCATGGACCGGTTTTCCCGGTAATCCGTATTTGCA (site GAGTGGCCTTG)	0
GAATGGCCATGGACCGGTTTTCCCGGTAATCCGTATTTGCA (site GATTGGCCTTG)	0
GAATGGCCATGGACCGGTTTTCCCGGTAATCCGTATTTGCA (site GCATGGCCTTG)	0
GAATGGCCATGGACCGGTTTTCCCGGTAATCCGTATTTGCA (site GGATGGCCTTG)	0
GAATGGCCATGGACCGGTTTTCCCGGTAATCCGTATTTGCA (site GTATGGCCTTG)	0
GAATGGCCATGGACCGGTTTTCCCGGTAATCCGTATTTGCA (site TAATGGCCTTG)	0.00558
GAATGGGCATGGACCGGTTTTCCCGGTAATCCGTATTTGCA (site GAATGGACTTG)	1.98
GAATGGGCATGGACCGGTTTTCCCGGTAATCCGTATTTGCA (site GAATGGCCTTG)	0.00596
GAATGGGCATGGACCGGTTTTCCCGGTAATCCGTATTTGCA (site GAATGGGCTTG)	2.42
GAATGGGCATGGACCGGTTTTCCCGGTAATCCGTATTTGCA (site GAATGGTCTTG)	2.23
GACAAAACATGGACCGGTTTTCCCGGTAATCCGTATTTGGT (site GACAAAACTAC)	0.855

Sequence	recombinant UMI read abundance (log10)
GACAAAACATGGACCGGTTTTCCCGGTAATCCGTATTTGGT (site GACAAACCTAC)	0
GACAAAACATGGACCGGTTTTCCCGGTAATCCGTATTTGGT (site GACAAAGCTAC)	0.517
GACAAAACATGGACCGGTTTTCCCGGTAATCCGTATTTGGT (site GACAAATCTAC)	0
GACAAACCATGGACCGGTTTTCCCGGTAATCCGTATTTGAT (site GACAAACCTAA)	0
GACAAACCATGGACCGGTTTTCCCGGTAATCCGTATTTGAT (site GACAAACCTAC)	0
GACAAACCATGGACCGGTTTTCCCGGTAATCCGTATTTGAT (site GACAAACCTAG)	0
GACAAACCATGGACCGGTTTTCCCGGTAATCCGTATTTGAT (site GACAAACCTAT)	0
GACAAACCATGGACCGGTTTTCCCGGTAATCCGTATTTGGT (site AACAAACCTAC)	0
GACAAACCATGGACCGGTTTTCCCGGTAATCCGTATTTGGT (site CACAAACCTAC)	0
GACAAACCATGGACCGGTTTTCCCGGTAATCCGTATTTGGT (site GAAAAACCTAC)	0
GACAAACCATGGACCGGTTTTCCCGGTAATCCGTATTTGGT (site GACAAAACTAC)	0
GACAAACCATGGACCGGTTTTCCCGGTAATCCGTATTTGGT (site GACAAACCTAA)	0
GACAAACCATGGACCGGTTTTCCCGGTAATCCGTATTTGGT (site GACAAACCTAC)	0
GACAAACCATGGACCGGTTTTCCCGGTAATCCGTATTTGGT (site GACAAACCTAG)	0
GACAAACCATGGACCGGTTTTCCCGGTAATCCGTATTTGGT (site GACAAACCTAT)	0
GACAAACCATGGACCGGTTTTCCCGGTAATCCGTATTTGGT (site GACAAACCTCC)	0.0384
GACAAACCATGGACCGGTTTTCCCGGTAATCCGTATTTGGT (site GACAAACCTGC)	0
GACAAACCATGGACCGGTTTTCCCGGTAATCCGTATTTGGT (site GACAAACCTTC)	0
GACAAACCATGGACCGGTTTTCCCGGTAATCCGTATTTGGT (site GACAAAGCTAC)	0
GACAAACCATGGACCGGTTTTCCCGGTAATCCGTATTTGGT (site GACAAATCTAC)	0
GACAAACCATGGACCGGTTTTCCCGGTAATCCGTATTTGGT (site GACAACCCTAC)	0
GACAAACCATGGACCGGTTTTCCCGGTAATCCGTATTTGGT (site GACAAGCCTAC)	0.00399
GACAAACCATGGACCGGTTTTCCCGGTAATCCGTATTTGGT (site GACAATCCTAC)	0
GACAAACCATGGACCGGTTTTCCCGGTAATCCGTATTTGGT (site GACACACCTAC)	0
GACAAACCATGGACCGGTTTTCCCGGTAATCCGTATTTGGT (site GACAGACCTAC)	0
